# Assay results from PMC9127750, “Structure-based design of CDC42 effector interaction inhibitors for the treatment of cancer” (Cell reports, 2022).
# Tested on: WM3248 melanoma cells, 486 antibodies
# Assay: Reverse phase protein arrays (RPPA);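 on RPPA ACC1.R.C: ratio of treated to vehicle (0 µM) normalized linear protein signal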;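 on RPPA AMPK.a2 pS345.R.V: ratio of treated to vehicle (0 µM) normalized linear protein signal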;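 on RPPA AMPKa pT172.R.C: ratio of treated to vehicle (0 µM) normalized linear protein signal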;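 on RPPA ASNS.R.V: ratio of treated to vehicle (0 µM) normalized linear protein signal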
# Type: cell-based, Human
# Settings: 5 uM
# From the text: Pellets were snap frozen in liquid nitrogen and shipped to MD Anderson Cancer Center core RPPA facility for RPPA analysis (Table S5). Three biological replicates for each sample were generated.
# Nomenclatures on the RPPA heatmaps: name_of_antibody.species_of_antibody.status_of_antibody. V - antibody validated; C - validation of antibody in progress; Q - antibody nonspecific; E – under evaluation; antibodies raised in M - mouse, G - goat, R - rabbit, or T - rat.
structure (smiles),measurement,setting,value
"CN(C)c1cccc(Nc2cc(-c3ccccc3)nc(C3CCNCC3)n2)c1 [ARN22089, N1,N1-dimethyl-N3-(6-phenyl-2-(piperidin-4-yl)pyrimidin-4-yl)benzene-1,3-diamine]",RPPA EMA.M.C,Average,1.019
same,RPPA ENY2.M.C,Average,0.945
same,RPPA ER.a.R.V,Average,1.031
same,RPPA ER.a_pS118.R.V,Average,1.194
same,RPPA ERCC1.R.C,Average,0.974
same,RPPA ERCC5.R.C,Average,0.991
same,RPPA ERRalpha.R.V,Average,1.000
same,RPPA EVI1.R.V,Average,0.976
same,RPPA Elk1_pS383.R.C,Average,1.029
same,RPPA Enolase.2.R.V,Average,1.011
same,RPPA EphA2.R.V,Average,0.963
same,RPPA EphA2_pS897.R.C,Average,0.963
same,RPPA Erk5.R.V,Average,1.061
same,RPPA Ets.1.R.V,Average,0.910
same,RPPA FABP5.R.C,Average,0.807
same,RPPA FAK.R.C,Average,1.005
same,RPPA FAK_pY397.R.V,Average,1.015
same,RPPA FANCD2.R.V,Average,1.011
same,RPPA FASN.R.V,Average,0.986
same,RPPA FGF.basic.R.C,Average,0.990
same,RPPA FN14.R.C,Average,1.084
same,RPPA FOXM1.R.V,Average,1.005
same,RPPA FTO.R.V,Average,0.940
same,RPPA Fibronectin.R.V,Average,0.998
same,RPPA FoxO3a_pS318_S321.R.C,Average,0.976
same,RPPA G6PD.R.V,Average,0.982
same,RPPA GATA3.M.V,Average,0.852
same,RPPA GATA6.R.V,Average,0.999
same,RPPA GCLC.R.C,Average,1.009
same,RPPA GCLM.R.V,Average,0.973
same,RPPA GCN5L2.R.V,Average,1.028
same,RPPA GGPS1.M.V,Average,0.917
same,RPPA GRB2.R.V,Average,1.049
same,RPPA GRB7.R.V,Average,1.025
same,RPPA GSK.3a.b.M.V,Average,0.977
same,RPPA GSK.3a.b_pS21_S9.R.V,Average,0.983
same,RPPA Gab2.R.V,Average,1.019
same,RPPA Gli1.R.C,Average,1.002
same,RPPA Gli3.R.C,Average,0.909
same,RPPA Glucocorticoid.Receptor.R.V,Average,1.019
same,RPPA Glutamate.D1.2.R.V,Average,0.907
same,RPPA Glutaminase.R.C,Average,0.909
same,RPPA Granzyme.B.R.V,Average,1.098
same,RPPA Grp75.R.C,Average,0.983
same,RPPA Gys_pS641.R.V,Average,1.021
same,RPPA H2AX_pS139.R.C,Average,1.019
same,RPPA H2AX_pS140.M.C,Average,0.923
same,RPPA HER2.M.V,Average,0.962
same,RPPA HER2_pY1248.R.V,Average,1.025
same,RPPA HER3_pY1289.R.C,Average,0.983
same,RPPA HES1.R.V,Average,1.187
same,RPPA X4E.BP1.R.V,Average,1.200
same,RPPA X4E.BP1_pS65.R.V,Average,1.011
same,RPPA X4E.BP1_pT37_T46.R.V,Average,1.016
same,RPPA X14.3.3.zeta.R.V,Average,0.987
same,RPPA X14.3.3βR.V,Average,1.006
same,RPPA X14.3.3εM.C,Average,0.962
same,RPPA X53BP1.R.V,Average,0.978
same,RPPA b.Actin.R.C,Average,0.929
same,RPPA b.Catenin.R.V,Average,0.915
same,RPPA b.Catenin_pT41_S45.R.V,Average,1.024
same,RPPA c.Abl.R.V,Average,1.084
same,RPPA c.Abl_pY412.R.C,Average,1.056
same,RPPA c.IAP2.R.C,Average,1.003
same,RPPA eEF2.R.C,Average,0.913
same,RPPA eEF2K.R.V,Average,0.916
same,RPPA eIF4E.R.V,Average,1.118
same,RPPA eIF4E_pS209.R.V,Average,1.025
same,RPPA eIF4G.R.C,Average,1.047
same,RPPA level HLA.DQA1.R.V,Average,0.948
same,RPPA level HLA.DR.DP.DQ.DX.R.C,Average,0.928
same,RPPA level HMHA1.R.V,Average,1.133
same,RPPA level HNRNPK.R.V,Average,0.988
same,RPPA level HSP27.M.C,Average,1.008
same,RPPA level HSP27_pS82.R.V,Average,1.113
same,RPPA level HSP60.R.V,Average,1.017
same,RPPA level HSP70.R.C,Average,1.003
same,RPPA level Hexokinase.I.R.C,Average,0.909
same,RPPA level Hexokinase.II.R.V,Average,0.992
same,RPPA level Hif.1αR.C,Average,1.051
same,RPPA level Histone.H3.R.V,Average,0.963
same,RPPA level Histone.H3_pS10.R.V,Average,0.786
same,RPPA level IGF1R_pY1135_Y1136.R.V,Average,1.035
same,RPPA level IGFBP2.R.V,Average,0.875
same,RPPA level IGFBP3.M.V,Average,0.957
same,RPPA level IGFRb.R.C,Average,1.062
same,RPPA level IL.6.R.C,Average,1.050
same,RPPA level IMP3.R.C,Average,0.997
same,RPPA level IR.b.R.C,Average,1.131
same,RPPA level IRF.1.R.V,Average,1.000
same,RPPA level IRF.3.R.V,Average,1.007
same,RPPA level IRS1.R.V,Average,1.078
same,RPPA level IRS2.R.C,Average,0.971
same,RPPA level JAB1.M.C,Average,0.973
same,RPPA level JNK2.R.V,Average,0.889
same,RPPA level JNK_pT183_Y185.R.C,Average,1.026
same,RPPA level Jak2.R.V,Average,1.011
same,RPPA level KAP1.R.V,Average,0.915
same,RPPA level KEAP1.R.V,Average,0.914
same,RPPA level LC3A.B.R.C,Average,0.914
same,RPPA level LCN2.R.V,Average,1.165
same,RPPA level LDHA.R.C,Average,0.789
same,RPPA level LRP6_pS1490.R.V,Average,1.065
same,RPPA level Lasu1.R.V,Average,0.902
same,RPPA level Lck.R.V,Average,0.925
same,RPPA level Lyn.R.V,Average,0.878
same,RPPA level MACC1.R.V,Average,1.021
same,RPPA level MAPK_pT202_Y204.R.C,Average,1.079
same,RPPA level MCT4.R.V,Average,0.958
same,RPPA level MDM2_pS166.R.V,Average,0.899
same,RPPA level MEK1.R.V,Average,1.584
same,RPPA level MEK1_pS217_S221.R.V,Average,1.125
same,RPPA level MERIT40.R.C,Average,0.975
same,RPPA level METTL3.R.V,Average,0.920
same,RPPA level MIF.R.C,Average,1.010
same,RPPA level MIG6.R.V,Average,1.024
same,RPPA level MITF.R.V,Average,0.967
same,RPPA level MLH1.M.V,Average,0.943
same,RPPA level MLKL.R.V,Average,0.967
same,RPPA level MMP2.R.V,Average,0.995
same,RPPA level MMP14.R.V,Average,0.964
same,RPPA level MR1.M.C,Average,1.033
same,RPPA level MRAP.R.C,Average,1.061
same,RPPA level MSH2.R.C,Average,0.932
same,RPPA level MSH6.R.C,Average,0.925
same,RPPA level MSI2.R.C,Average,1.004
same,RPPA level MTCO1.M.V,Average,0.944
same,RPPA level MTSS1.M.C,Average,0.998
same,RPPA level Mcl.1.R.V,Average,1.076
same,RPPA level MelanA.R.C,Average,1.025
same,RPPA level Melanoma.gp100.R.C,Average,1.061
same,RPPA level Merlin.R.C,Average,0.894
same,RPPA level Midkine.R.V,Average,1.001
same,RPPA level Mitofusin.1.R.V,Average,1.053
same,RPPA level Mitofusin.2.R.V,Average,1.013
same,RPPA level mTOR.R.V,Average,1.016
same,RPPA level mTOR_pS2448.R.C,Average,1.025
same,c.Jun_pS73.R.V RPPA level,Average,0.983
same,c.Kit.R.V RPPA level,Average,0.895
same,c.Met_pY1234_Y1235.R.V RPPA level,Average,1.062
same,c.Myc.R.C RPPA level,Average,1.010
same,cGAS.R.V RPPA level,Average,1.020
same,cdc2_pY15.R.C RPPA level,Average,1.200
same,RPPA A.Raf.R.V,B.1,0.964
same,RPPA A.Raf_pS299.R.C,B.1,1.002
same,RPPA ACC1.R.C,B.1,1.160
same,RPPA ACC_pS79.R.V,B.1,0.974
same,RPPA ACSL1.R.V,B.1,1.052
same,RPPA ACVRL1.R.C,B.1,1.027
same,RPPA ADAR1.M.V,B.1,0.990
same,RPPA ALKBH5.R.V,B.1,1.061
same,RPPA AMPK.a2_pS345.R.V,B.1,0.982
same,RPPA AMPKa.R.C,B.1,1.010
same,RPPA AMPKa_pT172.R.C,B.1,0.679
same,RPPA ARID1A.R.C,B.1,0.955
same,RPPA ASNS.R.V,B.1,1.050
same,RPPA ATM.R.V,B.1,1.017
same,RPPA ATM_pS1981.R.V,B.1,1.023
same,RPPA ATP5A.M.C,B.1,1.186
same,RPPA ATP5H.R.V,B.1,1.203
same,RPPA ATR.R.V,B.1,1.027
same,RPPA ATRX.R.C,B.1,0.816
same,RPPA ATR_pS428.R.C,B.1,0.959
